Experimental data: patent US20150038438A1, “ANTIBACTERIAL COMPOUNDS AND METHODS FOR USE” (PTC THERAPEUTICS, INC., priority 2011, published 2015)
In brackets after ≈: the same amount, converted by molar mass. Counter-ions that a name gives are not always drawn. Like-named read-outs stand apart in the source and are kept apart here.

Columns and labels:
Assay in all cases: Antibacterial activity, microbroth dilution method (MIC)
[1] = system: Gram-positive Staphylococcus aureus (S. aureus) 29213; format: cell-based; details: Staphylococcus aureus, Gram-positive S. aureus 29213
Summary of the method: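 Potency is reported as minimum inhibitory concentration in μg/mL, determined by broth microdilution as the lowest level of compound that stops growth visible to the eye.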

[2] = system: super sensitive Gram-negative Escherichia coli (E. coli) BAS849; format: cell-based; details: Escherichia coli, read-out: MIC, E. coli BAS849
Summary of the method: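 Broth microdilution; endpoint = no macroscopic growth; value = lowest inhibiting concn, μg/mL.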

[3] = system: control Gram-negative E. coli 25922 strain; format: cell-based, Escherichia coli; details: Escherichia coli
Summary of the method: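 MIC (μg/mL) read as lowest concentration with no macroscopically visible growth; microbroth dilution format. E. coli 25922 served as control Gram-negative strain.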

[4] = super sensitive Gram-negative E. coli BAS849, microbroth dilution

SMILES	MIC [1]	MIC [2, 4]	MIC [3]	MIC [2]
Cl.Cn1c(CNCC2CC2)cc2cc3c(cc21)CCCc1c-3[nH]c(=O)c(C(=O)O)c1O [Cpd 32, 10-(((cyclopropylmethyl)amino)methyl)-4-hydroxy-9-methyl-2-oxo-1,2,5,6,7,9-hexahydropyrido[3′,2′:6,7]cyclohepta[1,2-f]indole-3-carboxylic acid hydrochloride]	1 to 3.5 mg/L	< 1 mg/L	1 to 3.5 mg/L	–
CCCCCCCCCNCc1cc2cc3c(cc2n1C)CCCc1c-3[nH]c(=O)c(C(=O)O)c1O.Cl [Cpd 141, 4-hydroxy-9-methyl-10-((nonylamino)methyl)-2-oxo-1,2,5,6,7,9-hexahydropyrido[3′,2′:6,7]cyclohepta[1,2-f]indole-3-carboxylic acid hydrochloride]	3.5 to 12.5 mg/L	1 to 3.5 mg/L	12.5 to 150 mg/L	–
CC(C)NCc1cc2cc3c(cc2n1C)CCCc1c-3[nH]c(=O)c(C(=O)O)c1O.Cl [Cpd 26, 4-hydroxy-10-((isopropylamino)methyl)-9-methyl-2-oxo-1,2,5,6,7,9-hexahydropyrido[3′,2′:6,7]cyclohepta[1,2-f]indole-3-carboxylic acid hydrochloride]	3.5 to 12.5 mg/L	< 1 mg/L	< 1 mg/L	–
O=C(O)c1c(O)c2c([nH]c1=O)-c1ccc(N3C[C@@H]4[C@H](C3)[C@H]4N(Cc3ccccc3)Cc3ccccc3)cc1OCC2 [Cpd 79, 9-((cis,cis)-6-(dibenzylamino)-3-azabicyclo[3.1.0]hexan-3-yl)-4-hydroxy-2-oxo-1,2,5,6-tetrahydrobenzo[2,3]oxepino[4,5-b]pyridine-3-carboxylic acid trifluoroacetate]	12.5 to 150 mg/L	–	12.5 to 150 mg/L	12.5 to 150 mg/L
CN(C)Cc1cc2cc3c(cc2n1C)CCCc1c-3[nH]c(=O)c(C(=O)O)c1O.Cl [Cpd 48, 10-((dimethylamino)methyl)-4-hydroxy-9-methyl-2-oxo-1,2,5,6,7,9-hexahydropyrido[3′,2′:6,7]cyclohepta[1,2-f]indole-3-carboxylic acid hydrochloride]	3.5 to 12.5 mg/L	< 1 mg/L	< 1 mg/L	–
CCCNc1ccc2c(c1)CCCCc1c-2[nH]c(=O)c(C(=O)O)c1O [Cpd 128, 4-hydroxy-2-oxo-10-(propylamino)-1,2,5,6,7,8-hexahydrobenzo[7,8]cycloocta[1,2-b]pyridine-3-carboxylic acid]	3.5 to 12.5 mg/L (≈ 10.2 to 36.5 µM)	1 to 3.5 mg/L (≈ 2.92 to 10.2 µM)	12.5 to 150 mg/L (≈ 36.5 to 438 µM)	–
CNCc1cc2cc3c(cc2n1C)C=CCc1c-3[nH]c(=O)c(C(=O)O)c1O.Cl [Cpd 68, 4-hydroxy-9-methyl-10-((methylamino)methyl)-2-oxo-1,2,5,9-tetrahydropyrido[3′,2′:6,7]cyclohepta[1,2-f]indole-3-carboxylic acid hydrochloride]	3.5 to 12.5 mg/L	< 1 mg/L	< 1 mg/L	–
CN1CCC(NCc2cc3cc4c(cc3n2C)CCCc2c-4[nH]c(=O)c(C(=O)O)c2O)CC1.Cl.Cl [Cpd 157, 4-hydroxy-9-methyl-10-(((1-methylpiperidin-4-yl)amino)methyl)-2-oxo-1,2,5,6,7,9-hexahydropyrido[3′,2′:6,7]cyclohepta[1,2-f]indole-3-carboxylic acid dihydrochloride]	12.5 to 150 mg/L	< 1 mg/L	1 to 3.5 mg/L	–
Cl.Cn1c(CN2CCC2)cc2cc3c(cc21)CCc1c-3[nH]c(=O)c(C(=O)O)c1O [Cpd 21, 9-(azetidin-1-ylmethyl)-4-hydroxy-8-methyl-2-oxo-2,5,6,8-tetrahydro-1H-indolo[6,5-h]quinoline-3-carboxylic acid hydrochloride]	12.5 to 150 mg/L	1 to 3.5 mg/L	3.5 to 12.5 mg/L	–
CCNCc1cc2cc3c(cc2n1C)OCCc1c-3[nH]c(=O)c(C(=O)O)c1O.Cl [Cpd 89, 10-((ethylamino)methyl)-4-hydroxy-9-methyl-2-oxo-2,5,6,9-tetrahydro-1H-pyrido[2′,3′:4,5]oxepino[3,2-f]indole-3-carboxylic acid hydrochloride]	12.5 to 150 mg/L	< 1 mg/L	< 1 mg/L	–
CCNCc1cc2cc3c(cc2n1C)OCC(C)c1c-3[nH]c(=O)c(C(=O)O)c1O.Cl (stereo not drawn) [Cpd 92, 10-((ethylamino)methyl)-4-hydroxy-5,9-dimethyl-2-oxo-2,5,6,9-tetrahydro-1H-pyrido[2′,3′:4,5]oxepino[3,2-f]indole-3-carboxylic acid hydrochloride]	12.5 to 150 mg/L	1 to 3.5 mg/L	3.5 to 12.5 mg/L	–
Cl.Cn1c(CNCc2ccncc2)cc2cc3c(cc21)CCCc1c-3[nH]c(=O)c(C(=O)O)c1O [Cpd 39, 4-hydroxy-9-methyl-2-oxo-10-(((pyridin-4-ylmethyl)amino)methyl)-1,2,5,6,7,9-hexahydropyrido[3′,2′:6,7]cyclohepta[1,2-f]indole-3-carboxylic acid hydrochloride]	3.5 to 12.5 mg/L	< 1 mg/L	3.5 to 12.5 mg/L	–
Cn1ccc2cc3c(c(F)c21)CCCc1c-3[nH]c(=O)c(C(=O)O)c1O [Cpd 18, 8-fluoro-4-hydroxy-9-methyl-2-oxo-1,2,5,6,7,9-hexahydropyrido[3′,2′:6,7]cyclohepta[1,2-f]indole-3-carboxylic acid]	1 to 3.5 mg/L (≈ 2.92 to 10.2 µM)	< 1 mg/L	3.5 to 12.5 mg/L (≈ 10.2 to 36.5 µM)	–
CCCCNCc1cc2cc3c(cc2n1C)CCCc1c-3[nH]c(=O)c(C(=O)O)c1O.Cl [Cpd 136, 10-((butylamino)methyl)-4-hydroxy-9-methyl-2-oxo-1,2,5,6,7,9-hexahydropyrido[3′,2′:6,7]cyclohepta[1,2-f]indole-3-carboxylic acid hydrochloride]	3.5 to 12.5 mg/L	< 1 mg/L	< 1 mg/L	–
COCCNCc1cc2cc3c(cc2n1C)CCCc1c-3[nH]c(=O)c(C(=O)O)c1O.Cl [Cpd 148, 4-hydroxy-10-(((2-methoxyethyl)amino)methyl)-9-methyl-2-oxo-1,2,5,6,7,9-hexahydropyrido[3′,2′:6,7]cyclohepta[1,2-f]indole-3-carboxylic acid hydrochloride]	12.5 to 150 mg/L	< 1 mg/L	< 1 mg/L	–
O=C(O)c1c(O)c2c([nH]c1=O)-c1ccc(N3CCCC3)cc1SCC2 [Cpd 186, 4-hydroxy-2-oxo-9-(pyrrolidin-1-yl)-1,2,5,6-tetrahydrobenzo[2,3]thiepino[4,5-b]pyridine-3-carboxylic acid]	3.5 to 12.5 mg/L (≈ 9.77 to 34.9 µM)	< 1 mg/L	12.5 to 150 mg/L (≈ 34.9 to 419 µM)	–
N[C@@H]1[C@H]2CN(c3cc(F)c4c(c3)CCCc3c-4[nH]c(=O)c(C(=O)O)c3O)C[C@@H]12 [Cpd 125, 9-((cis,cis)-6-amino-3-azabicyclo[3.1.0]hexan-3-yl)-11-fluoro-4-hydroxy-2-oxo-2,5,6,7-tetrahydro-1H-benzo[6,7]cyclohepta[1,2-b]pyridine-3-carboxylic acid hydrochloride]	12.5 to 150 mg/L	< 1 mg/L	3.5 to 12.5 mg/L	–
Cl.Cn1c(CN2CCC2)cc2cc3c(cc21)OCCc1c-3[nH]c(=O)c(C(=O)O)c1O [Cpd 91, 10-(azetidin-1-ylmethyl)-4-hydroxy-9-methyl-2-oxo-2,5,6,9-tetrahydro-1H-pyrido[2′,3′:4,5]oxepino[3,2-f]indole-3-carboxylic acid hydrochloride]	12.5 to 150 mg/L	< 1 mg/L	< 1 mg/L	–
Cl.Cn1c(CN2CCC2)cc2cc3c(cc21)CCCc1cc(C(=O)O)c(=O)[nH]c1-3 [Cpd 57, 10-(azetidin-1-ylmethyl)-9-methyl-2-oxo-1,2,5,6,7,9-hexahydropyrido[3′,2′:6,7]cyclohepta[1,2-f]indole-3-carboxylic acid hydrochloride]	12.5 to 150 mg/L	< 1 mg/L	< 1 mg/L	–
CN1CCc2cc3c(cc21)CCCc1c(O)c(C(=O)O)c(=O)n(C)c1-3 [Cpd 135, 4-hydroxy-1,9-dimethyl-2-oxo-1,2,5,6,7,9,10,11-octahydropyrido[3′,2′:6,7]cyclohepta[1,2-f]indole-3-carboxylic acid]	3.5 to 12.5 mg/L (≈ 10.3 to 36.7 µM)	< 1 mg/L	12.5 to 150 mg/L (≈ 36.7 to 441 µM)	–
N[C@@H]1[C@H]2CN(c3ccc4c(c3)CCCCc3c-4[nH]c(=O)c(C(=O)O)c3O)C[C@@H]12 [Cpd 127, 10-((cis,cis)-6-amino-3-azabicyclo[3.1.0]hexan-3-yl)-4-hydroxy-2-oxo-1,2,5,6,7,8-hexahydrobenzo[7,8]cycloocta[1,2-b]pyridine-3-carboxylic acid hydrochloride]	3.5 to 12.5 mg/L	< 1 mg/L	< 1 mg/L	–
CN(C)C1CCN(Cc2cc3cc4c(cc3n2C)CCCc2c-4[nH]c(=O)c(C(=O)O)c2O)CC1.Cl.Cl [Cpd 30, 10-((4-(dimethylamino)piperidin-1-yl)methyl)-4-hydroxy-9-methyl-2-oxo-1,2,5,6,7,9-hexahydropyrido[3′,2′:6,7]cyclohepta[1,2-f]indole-3-carboxylic acid dihydrochloride]	3.5 to 12.5 mg/L	< 1 mg/L	3.5 to 12.5 mg/L	–
Cl.Cn1c(CNCc2cccnc2)cc2cc3c(cc21)CCCc1c-3[nH]c(=O)c(C(=O)O)c1O [Cpd 52, 4-hydroxy-9-methyl-2-oxo-10-(((pyridin-3-ylmethyl)amino)methyl)-1,2,5,6,7,9-hexahydropyrido[3′,2′:6,7]cyclohepta[1,2-f]indole-3-carboxylic acid hydrochloride]	3.5 to 12.5 mg/L	< 1 mg/L	3.5 to 12.5 mg/L	–
CC1Oc2cc(Cl)ccc2-c2c1cc(C(=O)O)c(=O)n2Cc1ccccc1 (stereo not drawn) [Cpd 72, 1-benzyl-8-chloro-5-methyl-2-oxo-2,5-dihydro-1H-chromeno[4,3-b]pyridine-3-carboxylic acid]	3.5 to 12.5 mg/L (≈ 9.17 to 32.7 µM)	3.5 to 12.5 mg/L (≈ 9.17 to 32.7 µM)	12.5 to 150 mg/L (≈ 32.7 to 393 µM)	–
Cl.O=C(O)c1c(O)c2c([nH]c1=O)-c1ccc(N3CC4CCCNC4C3)cc1NCC2 (stereo not drawn) [Cpd 98, 9-(hexahydro-1H-pyrrolo[3,4-b]pyridin-6(2H)-yl)-4-hydroxy-2-oxo-2,5,6,7-tetrahydro-1H-benzo[b]pyrido[2,3-d]azepine-3-carboxylic acid hydrochloride]	12.5 to 150 mg/L	12.5 to 150 mg/L	12.5 to 150 mg/L	–
